Columns and labels:
[1] = system: Balb/c mice sensitized to ovalbumin; conditions: mouse model of airway allergic eosinophilic inflammation; cited from earlier work
SuHx Wistar rats = test: SU-5416/Hypoxia rat model of pulmonary hypertension; type: in vivo; conditions: 100 mg/kg/day i.p.; for Pulmonary vascular remodeling: H&E and alpha-SMA staining of lung sections; for Total pulmonary vascular resistance (TPVR): curative protocol, vs vehicle-treated SuHx rats
Description: FIG. 6A: In vivo effect of chalcone-4 and compound (1) in the SU-5416 (20 mg/kg)/Hypoxia (SuHx) rat model of PH on total pulmonary vascular resistance, cardiac output and right ventricular hypertrophy. Male Wistar rats (100 g upon arrival in the laboratory; Janvier Labs, France) served as experimental subjects. SU-5416 (20 mg/kg) was injected subcutaneously and the rats were placed in normobaric hypoxia (10% FiO2) for 3 weeks for PH to develop, and were then left for 2 weeks in normoxia. Rats were treated either with chalcone-4 or compound (1) at a dose of 100 mg/kg i.p. as compared with vehicle-treated SuHx rats. In addition, a group of healthy rats with no PH were used as the control group (CTR). The total pulmonary vascular resistance (TPVR), cardiac output (CO), right ventricular hypertrophy (RVH) assessed by the Fulton index [right/(left+septum) ventricular weight] were obtained in CTR and SuHx rats treated with chalcone-4 and compound (1). The bar graph represents means SEM. *** p-value <0.001, **** p-value <0.0001 versus CTR rats. # p-value <0.05,### p-value <0.001 versus vehicle-treated SuHx rats.
The activity of compound (1) vs chalcone-4 was evaluated in an animal model of pulmonary hypertension (PH) (by convention, animal models are still referred to as having PH rather than PAH): the SU-5416 (20 mg/Kg)/Hypoxia rat model. Chalcone-4 and compound (1) (100 mg/kg/day) were prepared in carboxymethylcellulose (CMC 1% in saline) and administered I.P. Rats were treated for 3 weeks in a curative protocol, and were then left for 2 weeks in normoxia. An additional group of healthy rats with no PH was used as the control group (CTR).
PH was induced by a single subcutaneous injection of SU5416 (20 mg/kg) in Wistar rats, followed by a 3-week exposure to chronic hypoxia (10% FiO2). Right ventricular structure and function was assessed by echocardiography using the GE Vivid 9 ultrasound. Before treatment begins, echocardiography measurements of each rat have been performed to validate the presence of PH in animals (acceleration time/ejection time). Then, the rats were randomized by numbering the animals from 1 to 4 in each cage at the beginning of the study, and then looking at a random number table. Each rat has been treated by intraperitoneal administration. At the end of the treatment period, a right heart catheterization (RHC) was performed to determine the PH severity and the cardiac function.
Animals were anesthetized with isoflurane. A polyvinyl catheter was introduced into the right jugular vein and pushed through the right ventricle into the pulmonary artery. Cardiac output in rats was measured using the thermodilution method.
After measurement of hemodynamic parameters, the thorax was opened and the left lung immediately removed and frozen. The right lung was fixed in the distended state with formalin buffer. The right ventricular hypertrophy assessed by the Fulton index [weight ratio of right ventricle (RV) and (left ventricle (LV)+septum)] and the percentage of wall thickness [(2× medial wall thickness/external diameter)×100] and of muscularized vessels were determined as previously described^21.
Histological sections were stained with hematoxylin and eosin, and immunohistochemistry for alpha-smooth muscle actin was performed as previously described^1′. Images were taken with a microscope Nikon Eclipse 80i and NIS-Elements BR 2.30 software.

CXCL12 to CXCR4 = CXCL12 to CXCR4 (Homo sapiens, UniProt P48061); conditions: cited from earlier work
[2] = system: human peripheral blood CD4+ lymphocytes; conditions: cited from earlier work
CXCL12 = conditions: cited from earlier work
CXCR4 = conditions: cited from earlier work
CXCL12 to CXCR7 = CXCL12 to CXCR7 (Homo sapiens, UniProt P48061); conditions: cited from earlier work
CCL17 = biological target: T1, CCL17 (Homo sapiens, UniProt Q92583); test: Selectivity towards chemokine CCL17; conditions: 5 μM
T1 sequence (Q92583 24-94): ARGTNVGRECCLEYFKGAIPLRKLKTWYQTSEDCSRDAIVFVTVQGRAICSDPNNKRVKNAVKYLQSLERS
Description: (§1) Furthermore, the selectivity of (1) was also evaluated towards two other chemokines, namely CCL17 and CCL22, with no activity at 5 μM (data not shown).

C57BL/6J mice = test: Fentanyl-induced hyperalgesia, tail immersion test
CCL22 = biological target: T2, CCL22 (Homo sapiens, UniProt O00626); test: Selectivity towards chemokine CCL22; conditions: 5 μM
T2 sequence (O00626 25-93): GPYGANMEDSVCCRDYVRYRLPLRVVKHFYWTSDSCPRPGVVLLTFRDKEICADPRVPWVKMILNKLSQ
Description: as §1

[3] = vs SuHx rats treated with vehicle or chalcone-4

Chain of CXCL12 to CXCR4 (P48061 22-89 limits assumed): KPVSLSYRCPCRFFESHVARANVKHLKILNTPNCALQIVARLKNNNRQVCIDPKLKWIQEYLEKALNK
Chain of CXCL12 to CXCR7 (P48061 22-89 limits assumed): as above

Compound	Inflammatory infiltration, in particular of eosinophils [1]	Pulmonary vascular remodeling (SuHx Wistar rats)	Total pulmonary vascular resistance (TPVR) (SuHx Wistar rats)	Binding of CXCL12 to CXCR4 (CXCL12 to CXCR4)	Chemotaxis of human peripheral blood CD4+ lymphocytes [2]	Intracellular calcium responses (CXCL12)	CXCR4 internalization in response to CXCL12 (CXCR4)	Binding of CXCL12 to CXCR7 (CXCL12 to CXCR7)	Activity towards CCL17 (CCL17)	Cardiac output (SuHx Wistar rats; [3])	Fulton index (right ventricular hypertrophy) (SuHx Wistar rats; [3])	Secondary hyperalgesia induced by fentanyl (C57BL/6J mice; 10 mg/kg i.p., co-administered with fentanyl)	Nociceptive threshold, compound alone (C57BL/6J mice; 50 mg/kg, i.p., without fentanyl)	Activity towards CCL22 (CCL22)
COc1cc(/C=C/C(=O)c2ccc(Cl)cc2)ccc1O [Chalcone-4, (E)-1-(4-Chlorophenyl)-3-(4-hydroxy-3-methoxyphenyl)prop-2-en-1-one, reference compound]	inhibits inflammatory infiltration	substantially attenuated the pulmonary vascular remodeling	substantial decrease	inhibits	blocks chemotaxis	inhibits intracellular calcium responses	prevents CXCR4 internalization	inhibits						
COc1cc(-c2cc(-c3ccc(Cl)cc3)nc(=O)[nH]2)ccc1O [compound (1), 4-(4-Chlorophenyl)-6-(4-hydroxy-3-methoxyphenyl)pyrimidin-2(1H)-one]		substantially attenuated the pulmonary vascular remodeling	substantial decrease						no activity	substantial increase	significant decrease	completely prevented the development of secondary hyperalgesia	no effect on the nociceptive threshold	no activity

— patent US11046657B2, “Pyrimidinone derivatives and uses thereof to neutralize the biological activity of chemokines” (Centre National de la Recherche Scientifique (CNRS), priority 2016, dated 2021)
